Measured values taken from US20240209028A1, “CNP COMPOUNDS” (priority 2022, published 2024).
Starred links: 1 amine or outer side, 2 acyl side, 3 side chain; linkers in the order of their positions; H or OH if unused. Positions of bridges follow the written chain, without caps; N, C: chain ends. Residues, ends and D or L forms follow the SMILES beside them. *: point of attachment. C18 diacid = O=C(O)CCCCCCCCCCCCCCCCC(=O)*; γGlu = O=C(O)[C@H](CCC(=O)[*:2])N[*:1]; AEEA = NCCOCCOCC(=O)O

Legend:
[1] = PK after i.v. and s.c. administration to Göttingen minipig; details: female, Göttingen, minipig, in vivo
Description: (§1) The purpose of this study was to investigate pharmacokinetic and pharmacodynamic properties after intravenous (i.v.) and subcutaneous (s.c.) administration to Gottingen Minipig and domestic LYD pig, and to estimate bioavailability after s.c. dosing. Quantitative plasma analysis of CNP and cGMP levels were performed as described in
(§2) Animals and dosing: The pharmacokinetic and pharmacodynamic studies in Gottingen Minipig or domestic LYD pig were conducted at CRO Minerva Imaging or Novo Nordisk A/S, respectively. CNP compounds were dosed to normal female 1) Gottingen minipigs 6-12 months of age with an average weight of 22 kg or 2) domestic LYD pigs 4-5 months of age with and average weight of 80 kg. At least one week prior to dosing, permanent central venous catheters were implanted for blood sampling and intravenous (i.v.) dosing. For subcutaneous (s.c.) dosing, the pigs were ultrasound scanned and the optimal injection area laterally on the neck marked by a permanent tattoo. An insulin pen (NovoPen Echo or NovoPen 4) and insulin needle (NovoFine 32G/4 mm or NovoTwist 32G/5 mm) were used for accurate deposition of the CNP formulations in the subcutaneous fat tissue with the needle perpendicular to the skin.
(§3) CNP compounds were formulated according to the principles in General Methods of Preparation—Method G and were either A) 8 mM sodium phosphate, 250 mM glycerol, pH 6.5, B) 5 mM sodium acetate, 250 mM glycerol, pH 4.0, C) 5 mM sodium acetate, 240 mM propylene glycol, pH=4.0, D) 8 mM sodium phosphate, 250 mM glycerol, pH 7.5 or E) 20 mM sodium phosphate, 223 mM propylene glycol, pH 6.0.
(§4) Intravenously, the CNP compounds were dosed at 30-60 nmol/kg to Minipig and 15-43 nmol/kg to domestic pig using formulations A-E. Subcutaneously, the CNP compounds were dosed at 55-62 nmol/kg to Minipig and 20-30 nmol/kg to domestic pig using formulations A-D.
(§5) Sampling: Blood samples of approximately 1 mL were collected pre dose and up to 14 days post dose into EDTA-coated tubes (8 mM) for cGMP and CNP compound analysis by LC-MS. In few instances, cGMP was only analysed up to 48 hours post dose after intravenous dosing in domestic LYD pig. The blood samples were kept on wet ice for maximum 30 minutes until centrifugation for 10 minutes at 4° C. and minimum 1500G, and the plasma samples were stored at −20° C. until analysis.
(§6) Plasma concentration-time profiles were analyzed by non-compartmental PK analysis using Phoenix WinNonlin 8.1, Pharsight Inc., Mountain View, CA, USA. Calculation of the area under the plasma concentration-time curve (AUC) was based on the “linear up log down” method, and uniform weighting was used for estimation of the terminal rate constant (λz). S.c. bioavailability (F) was calculated as the dose-normalized AUC (AUC/dose) after s.c. administration divided by the AUC/dose after i.v. administration. […]

[2] = PK after i.v. and s.c. administration to domestic LYD pig; details: female, in vivo
Description: as §1, §2, §3, §4, §5, §6

[3] = Local tolerance of CNP compounds in rats (s.c. injection, histopathology); type: in vivo, Sprague Dawley rat; details: rat, s.c. 350 μl, about 1000 nmol/ml, 5 days post injection
Description: The purpose of this study was to evaluate the local tissue reaction to subcutaneous injection of CNP compounds in rats.
Procedure: The CNP compounds were formulated according to the principles described in General Methods of Preparation-Method G. Each Sprague Dawley rat (male, 10-11 weeks of age at arrival, Janvier, France) was dosed s.c. with 250 or 350 uL of the same compound (formulation concentration of 1000 nmol/mL) 120 h prior to tissue collection resulting in a total of two injections for each animal (Table 15). Injection site (flank or neck) was alternated across animals within each group and time point.
Animals had access to tap water and food (Altromin 1324) ad libitum. Group size was n=3 for vehicles and positive control, and n=4 for test compounds. Vehicles and compounds were formulated in either 5 mM sodium acetate, 250 mM glycerol, pH 4.0 or 8 mM sodium phosphate, 250 mM glycerol, pH 7.4 as shown in Table 16.
The animals were anesthetized with isoflurane. Via an electric shaving machine, a squared area of fur (2 cm×2 cm) was removed either from the rats' neck or flank area). For dosing, a new injection needle (25G canula, 1 ml syringe) was placed in the middle of the square border closest to the animal's head and the needle was inserted into the skin from the border towards the center of the square. […] On the day of tissue collection, the rats were deeply anaesthetized with isoflurane and euthanized by exsanguination. The injection sites were inspected and scored with regards to pathological lesions. The injection sites were evaluated, and any changes were noted (location, colour, shape and size), and sampled for histology preparation.
The injection sites were removed and fixed in 4% phosphate buffered neutral formaldehyde in sealed plastic containers.
Each injection site was subsequently cut into three sections 0.8 cm, 1.0 cm and 1.2 cm from the square border where the injection needle was placed, and, respectively, these sections represented the injection sites and the adjacent tissue. The tissue was processed, embedded in paraffin and cut in 2-4 μm thin sections, stained with the haematoxylin and eosin (H&E), and evaluated microscopically with a light microscope. Histopathological changes were graded on a 5-level scale (Minimal (Min), Mild (Mil), Moderate (Mod), Marked (Mar) and Severe (Sev)).

[4] = iv, Domestic LYD pig, i.v., read-out: CL (ml/hr/kg), Intravenous PK (converted)
[5] = iv, Domestic LYD pig, i.v., read-out: T½, iv (converted)

SMILES	bioavailability ([2]; LYD (domestic), pig, sc) [%]	clearance ([2]; LYD, pig, iv) [mL/h/kg]	half-life ([2]; LYD, pig, iv) [h]	half-life ([2]; LYD, pig, sc) [h]	clearance [2, 4] [mL/h/kg]	half-life [2, 5] [h]	also measured
CC[C@H](C)[C@@H]1NC(=O)[C@H](CCCNC(=N)N)NC(=O)[C@H](CCC(=O)O)NC(=O)[C@H](CC(C)C)NC(=O)[C@H](CCCCN)NC(=O)[C@H](CC(C)C)NC(=O)CNC(=O)[C@H](Cc2ccccc2)NC(=O)[C@@H](NC(=O)CNC(=O)[C@H](CCCCN)NC(=O)[C@H](CO)NC(=O)[C@H](CC(C)C)NC(=O)CNC(=O)[C@H](CCCCN)NC(=O)[C@H](CCCCN)NC(=O)[C@H](CCC(N)=O)NC(=O)[C@H](C)NC(=O)CNC(=O)[C@H](CCCCN)NC(=O)[C@H](Cc2ccc(O)cc2)NC(=O)[C@H](CCCCN)NC(=O)[C@H](CCCNC(=N)N)NC(=O)[C@H](C)NC(=O)COCCOCCNC(=O)COCCOCCNC(=O)CC[C@H](NC(=O)CCCCCCCCCCCCCCCCC(=O)O)C(=O)O)CSSC[C@@H](C(=O)O)NC(=O)CNC(=O)[C@H](CC(C)C)NC(=O)CNC(=O)[C@H](CO)NC(=O)[C@H](CC(C)C)NC(=O)[C@H](CO)NC(=O)CNC1=O [Compound 0776] ({C18 diacid-γGlu-AEEA-AEEA}-ARKYKGAQKKGLSKGCFGLKLERIGSLSGLGC-OH; disulfide 16-32)	7	1.34	29	41			clearance ([1]; iv): 0.841 mL/h/kg; half-life ([1]; iv): 60 h; bioavailability ([1]; sc): 13%; half-life ([1]; sc): 56 h
CC[C@H](C)[C@@H]1NC(=O)[C@H](CCCNC(=N)N)NC(=O)[C@H](CC(=O)O)NC(=O)[C@H](CC(C)C)NC(=O)[C@@H]2CCCN2C(=O)[C@H](CC(C)C)NC(=O)CNC(=O)[C@H](Cc2ccccc2)NC(=O)[C@@H](NC(=O)CNC(=O)[C@H](CCCCN)NC(=O)[C@H](CO)NC(=O)[C@H](CC(C)C)NC(=O)CNC(=O)[C@H](CCCCN)NC(=O)[C@H](CCCCN)NC(=O)[C@H](CCC(N)=O)NC(=O)[C@H](C)NC(=O)CNC(=O)[C@H](CCC(=O)O)NC(=O)[C@H](Cc2ccc(O)cc2)NC(=O)COCCOCCNC(=O)COCCOCCNC(=O)CC[C@H](NC(=O)CCCCCCCCCCCCCCCCC(=O)O)C(=O)O)CSSC[C@@H](C(=O)O)NC(=O)CNC(=O)[C@H](CC(C)C)NC(=O)CNC(=O)[C@H](CO)NC(=O)[C@H](CC(C)C)NC(=O)[C@H](CO)NC(=O)CNC1=O [Compound 1225] ({C18 diacid-γGlu-AEEA-AEEA}-YEGAQKKGLSKGCFGLPLDRIGSLSGLGC-OH; disulfide 13-29)					3.23	15	
CC[C@H](C)[C@@H]1NC(=O)[C@H](CCCNC(=N)N)NC(=O)[C@H](CC(=O)O)NC(=O)[C@H](CC(C)C)NC(=O)[C@@H]2CCCN2C(=O)[C@H](CC(C)C)NC(=O)CNC(=O)[C@H](Cc2ccccc2)NC(=O)[C@@H](NC(=O)CNC(=O)[C@H](CO)NC(=O)[C@H](CO)NC(=O)[C@H](CC(C)C)NC(=O)CNC(=O)[C@H](CCCCN)NC(=O)[C@H](CCCCN)NC(=O)[C@H](CCC(N)=O)NC(=O)[C@H](C)NC(=O)CNC(=O)[C@H](CCC(=O)O)NC(=O)[C@H](Cc2ccc(O)cc2)NC(=O)COCCOCCNC(=O)COCCOCCNC(=O)CC[C@H](NC(=O)CCCCCCCCCCCCCCCCC(=O)O)C(=O)O)CSSC[C@@H](C(=O)O)NC(=O)CNC(=O)[C@H](CC(C)C)NC(=O)CNC(=O)[C@H](CO)NC(=O)[C@H](CC(C)C)NC(=O)[C@H](CO)NC(=O)CNC1=O [Compound 1227] ({C18 diacid-γGlu-AEEA-AEEA}-YEGAQKKGLSSGCFGLPLDRIGSLSGLGC-OH; disulfide 13-29)					5.54	11	bioavailability ([2]; sc, Domestic LYD pig, s.c. bioavailability, read-out: F (%), Subcutaneous PK): 55%; half-life ([2]; sc, Domestic LYD pig, s.c., read-out: T½, sc (converted)): 9 h
CC[C@H](C)[C@@H]1NC(=O)[C@H](CCCNC(=N)N)NC(=O)[C@H](CC(=O)O)NC(=O)[C@H](CC(C)C)NC(=O)[C@H](CCCCN)NC(=O)[C@H](CC(C)C)NC(=O)CNC(=O)[C@H](Cc2ccccc2)NC(=O)[C@@H](NC(=O)CNC(=O)[C@H](CCCCN)NC(=O)[C@H](CO)NC(=O)[C@H](CC(C)C)NC(=O)CNC(=O)[C@H](CCCCN)NC(=O)[C@H](CCCCN)NC(=O)[C@H](CCC(N)=O)NC(=O)[C@H](C)NC(=O)CNC(=O)[C@H](Cc2c[nH]cn2)NC(=O)[C@H](CCC(=O)O)NC(=O)COCCOCCNC(=O)COCCOCCNC(=O)CC[C@H](NC(=O)CCCCCCCCCCCCCCCCC(=O)O)C(=O)O)CSSC[C@@H](C(=O)O)NC(=O)CNC(=O)[C@H](CC(C)C)NC(=O)CNC(=O)[C@H](CO)NC(=O)[C@H](CC(C)C)NC(=O)[C@H](CO)NC(=O)CNC1=O [Compound 1235]	25	3.28	20	29			
CC[C@H](C)[C@@H]1NC(=O)[C@H](CCCNC(=N)N)NC(=O)[C@H](CC(=O)O)NC(=O)[C@H](CC(C)C)NC(=O)[C@@H]2CCCN2C(=O)[C@H](CC(C)C)NC(=O)CNC(=O)[C@H](Cc2ccccc2)NC(=O)[C@@H](NC(=O)CNC(=O)[C@H](CCCCN)NC(=O)[C@H](CO)NC(=O)[C@@H](NC(=O)CNC(=O)[C@@H](NC(=O)[C@H](Cc2c[nH]cn2)NC(=O)[C@H](CCC(N)=O)NC(=O)[C@H](C)NC(=O)CNC(=O)[C@H](Cc2c[nH]cn2)NC(=O)[C@H](Cc2ccc(O)cc2)NC(=O)[C@H](CCCCN)NC(=O)[C@H](CCCNC(=N)N)NC(=O)[C@H](C)NC(=O)COCCOCCNC(=O)COCCOCCNC(=O)CC[C@H](NC(=O)CC[C@H](NC(=O)CC[C@H](NC(=O)CCCCCCCCCCCCCCCCC(=O)O)C(=O)O)C(=O)O)C(=O)O)[C@@H](C)O)C(C)C)CSSC[C@@H](C(=O)O)NC(=O)CNC(=O)[C@H](CC(C)C)NC(=O)CNC(=O)[C@H](CO)NC(=O)[C@H](CC(C)C)NC(=O)[C@H](CO)NC(=O)CNC1=O [Compound 1420] ({C18 diacid-γGlu-γGlu-γGlu-AEEA-AEEA}-ARKYHGAQHTGVSKGCFGLPLDRIGSLSGLGC-OH; disulfide 16-32)							Number of injections by severity of necrosis: Mil. [3]: 1; Number of injections by severity of necrosis: NAD (No Abnormalities Detected) [3]: 3
